The record followed here is ChEMBL document CHEMBL1146483, “Antitumor activity of bruceantin: an old drug with new promise” (J Nat Prod, 2004).

Series [1] concerns RPMI-8226. In words: Antitumor activity in human RPMI8226 cells xenografted in SCID mouse assessed as induction of apoptosis in peripheral proliferating areas at 5 to 12 mg mg/kg, ip administered every 3 days. Type of series: functional.
The next series has as its system BV-173. The series can be described thus: Cytotoxicity against human BV173 cells by trypan blue exclusion method. It counts as functional, cell-based.
For the next series, the system named is REH. In words: Cytotoxicity against human REH cells by trypan blue exclusion method. It counts as functional, cell-based.
Series [2] has as its system RPMI-8226. In words: Induction of apoptosis in human RPMI8226 cells after 24 hrs by DAPI staining. Type of series: functional, cell-based. The following applies: RPMI-8226, 24 h.
Another series concerns Kasumi 1. The series can be described thus: Cytotoxicity against human Kasumi-1 cells by trypan blue exclusion method. It counts as functional, cell-based.
The subject of another series is U-266. The series can be described thus: Induction of apoptosis in human U266 cells after 24 hrs by DAPI staining. The conditions noted are these: U-266, 24 h. It counts as functional, cell-based.
For a further series, the system named is U-937. The series can be described thus: Cytotoxicity against human U937 cells by trypan blue exclusion method. It counts as functional, cell-based.
Series [3] in a line: Cytotoxicity against human RS4:11 cells by trypan blue exclusion method. It counts as functional, cell-based.
For another series, the system named is NCI-H929. In words: Induction of apoptosis in human NCI-H929 cells after 24 hrs by DAPI staining. It counts as functional, cell-based. The following applies: NCI-H929, 24 h.
For the next series, the system named is NB-4. In words: Cytotoxicity against human NB4 cells by trypan blue exclusion method. Type of series: functional, cell-based.
The subject of series [4] is HL-60. The series can be described thus: Cytotoxicity against human HL60 cells by trypan blue exclusion method. Type of series: functional, cell-based.
Series [5] deals with HL-60. In words: Induction of apoptosis in human HL60 cells after 24 hrs by DAPI staining. Type of series: functional, cell-based. The conditions noted are these: HL-60, 24 h.
In another series the test system is Daudi. The series can be described thus: Cytotoxicity against human Daudi cells by trypan blue exclusion method. It counts as functional, cell-based.
Series [6] can be described thus: Cytotoxicity against concanavalin-stimulated human lymphocytes cells assessed as cell viability at 50 ng/mL after 4 days by trypan blue exclusion method. Type of series: cell-based, Lymphocyte. The following applies: read-out: Activity.
A short description of series [7]: Cytotoxicity against human DHL6 cells by trypan blue exclusion method. It counts as functional, cell-based. The conditions noted are these: SU-DHL-6.
Series [8] in a line: Cytotoxicity against human SUP-B13 cells by trypan blue exclusion method. Type of series: functional, cell-based.
Another series concerns K562. The series can be described thus: Cytotoxicity against human K562 cells assessed as cell viability at 50 ng/mL after 4 days by trypan blue exclusion method. Type of series: functional. The following applies: K562, 96 h, read-out: Activity.

pIC50: −log10 of the molar value. ≈ marks a conversion by molar mass, not a printed value.

`COC(=O)[C@@]12OC[C@]34[C@H]([C@@H](O)[C@@H]1O)[C@@]1(C)CC(=O)C(O)=C(C)[C@@H]1C[C@H]3OC(=O)[C@H](OC(=O)/C=C(\C)C(C)C)[C@@H]24` [BRUCEANTIN]: the Activity in the series on RPMI-8226 [1] is on record as 36.6%. In addition, the IC50 (usually the concentration that gives 50% inhibition) is less than 0.015 µg/mL in the series on BV-173; 0.02 µg/mL (≈ 0.0365 µM) in the series on REH; 0.02 µg/mL (≈ 0.0365 µM) in the series with Kasumi 1; less than 0.015 µg/mL with U-937; less than 0.015 µg/mL in series [3]; less than 0.015 µg/mL in the series with NB-4. Also, the 50% inhibitory concentration (IC50) is 0.02 µg/mL (≈ 0.0365 µM) in the series on HL-60 [4], less than 0.015 µg/mL in the series with Daudi, less than 0.015 µg/mL in [7] and less than 0.015 µg/mL in series [8]. In addition, the pIC50 – broadly, −log10 of the IC50, conventionally taken in molar units – in the series on RPMI-8226 [2] is 7.89; in the series with U-266, 7.31; in the series with NCI-H929 it was 6.94; in the series on HL-60 [5], 7.91. Further, the viability at 96 h, 50 ng/mL in [6] was found to be 90%. The viability at 0.05 µg/mL in the series with K562 was found to be 90%.
